The record followed here is US20100316677A1, “USE OF BAMBOO LEAF TOTAL FLAVONES IN THE PREPARATION OF MEDICINE AND HEALTH FOOD FOR PREVENTION AND TREATMENT OF PROSTATIC DISEASES” (ZHEJIANG UNIVERSITY (HANGZHOU) LEAF BIO-TECHNOLOGY CO., LTD., priority 2003, published 2010).

Structures are written as SMILES.

In test [1] the test system is growth of the prostate and accessorial sex organs. Kind of test: growth of the prostate and the accessorial sex organs of young mice. The class given is in vivo, ICR young male mice. As to conditions: 0.5 mg/kg sc once every 3 days, 5 times. As for the experimental part:
Assign ICR young male mice, body weight 10-12 g, into groups according to their body weight, 10-11 mice in each group: (1) controlled group: water of equal volume, 0.8 mL/20 g, ig; (2) estradiol group: estradiol 0.5 mg/kg, sc, once every 3 days, for 5 times; (3) high-dose group: EOB-f01 400 mg/kg, ig; (4) moderate-dose group: EOB-f01 200 mg/kg, ig; (5) low-dose group: EOB-f01 100 mg/kg, ig. Once per day, for 14 days. On the fifteenth day, sacrifice the mice, anatomize and weigh the abdominal, side, and back parts of the prostate, and seminal vesicle, testis, and elevator ani muscle.

The subject of test [2] is prostatic hyperplasia caused by testosterone propionate. Kind of test: prostatic hyperplasia caused by testosterone propionate. The class given is in vivo, ICR mice. The settings on record: testosterone propionate mice, 0.5 mg/kg sc once every 3 days, 5 times. As for the experimental part: Randomly assign ICR mice, male, body weight 18-21g, into 7 groups, 10-11 mice in each group: (1) controlled group: water of equal volume, 0.8 mL/20 g, ig; (2) model group: 0.8 mL/20 g water of equal volume, ig; (3) estradiol group: estradiol 0.5 mg/kg, sc, once every 3 days, for 5 times; (4) high-dose group: EOB-f01 400 mg/kg ig; (5) moderate-dose group: EOB-f01 200 mg/kg, ig; (6) low-dose group: EOB-f01 100 mg/kg, ig. Once per day, for 14 days. Except the controlled group (1), various groups (2)-(6) with testosterone propionate 5 mg/mL per day, sc, for 14 d. On the fifteenth day, sacrifice the mice, anatomize them, take and weigh the abdominal, side, and back parts of the prostate, and evaluate anti-hyperplasia effects of EOB-f01.

Test [3] concerns swelling of ear auricle caused by xylene. Kind of test: swelling of ear auricle of mice caused by xylene. As to conditions: 10 mg/kg ig once, blank control 11.4 ± 4.9. The class given is in vivo. As for the experimental part: Assign the mice into 5 groups according to their body weight, 10 mice in each group, as 2.1 section. Give the mice once per day through gastric irrigation (ig), for 7 days (indomethacin, given only once); in 30 min after the final dose, smear the right ear of the mice with xylene, 0.05 ml/mouse, cause inflammation, sacrifice them in 15 min, shear away their left and right ears, punch down their left and right ear slice with 9 mm trephine, and weigh them, taking the difference of weights between left and right ear slices as the swelling rate. Judge the effects compared with those of the controlled groups.

Test [4] concerns swelling of ear auricle caused by croton oil. Kind of test: swelling of ear auricle of mice caused by croton oil. The class given is in vivo. As to conditions: 10 mg/kg ig once, blank control 19.8 ± 2.9. As for the experimental part: Randomly assign mice into 5 groups, 12 mice in each group, as follows: (1) Blank-controlled group: saline of equal volume, 0.8 mL/20 g; (2) Positive-controlled group: indomethacin 10 mg/kg; (3) High-dose group: 10 mg/mL EOB-f01, 400 mg/kg; (4) moderate-dose group: 5 mg/mL EOB-f01, 200 mg/kg; (5) Low-dose group: 2.5 mg/mL EOB-f01, 100 mg/kg. The animals received the administration through gastric irrigation (ig). once per day for 7 continuous days (for indomethacin, only once); in 1 h after the final dose, smear the right ear of the mice with 2% croton oil, 0.02 ml/mouse, cause inflammation, sacrifice them after 4 h, shear away their left and right ears, punch down their left and right ear slice with 9 mm trephine, and weigh them, taking the difference of weights between left and right ear slices as the swelling rate.

Test [5] concerns prostatitis caused by carrageenan. Kind of test: prostatitis caused by carrageenan (prostate weight, histopathology). The class given is in vivo, SD male rats. As to conditions: carrageenan rats. As for the experimental part: […] Give the rats through gastric irrigation once per day, for 7 days (indomethacin, only once prior to operation), and begin the operation in 0.5 h after the final dose.
Conduct anesthesia for the rats, then fix them in supine position, shear off hair at their abdomen, and sterilized by iodine tinture; under sterilized condition, cut 1.5 cm at the center of their abdomen, expose the abdominal part of prostate, inject rats in (2)-(6) groups with 1% carrageenan saline, 0.02 mL/rat, with No. 4.5 syringe, immediately return the prostate to the abdominal cavity, add 1 drop of penicillin in the abdominal cavity, and immediately suture the abdominal cavity by two-layer ways. Replace carrageenan with saline 0.02 mL/rat, for rat in the controlled group (1), and conduct pseudo-operation. In 4 h after operation, sacrifice the rats, anatomize and separate each part of the prostate, weigh wet weight, and compare swelling extents between the dose groups and the model group. Take the abdominal part of the prostate of rats, fix with 10% formalin, dehydrate routinely, imbedded with paraffin, slice up, conduct HE staining, and observe pathological changes under a microscope.
Observation criteria for pathology of prostatic tissue from rats of each group: (1) Score of stroma swelling or blood vessel hyperemia: no stroma swelling or blood vessel hyperemia, 0; mild stroma swelling or blood vessel hyperemia, 1; moderate stroma swelling or blood vessel hyperemia, 2; severe stroma swelling or blood vessel hyperemia, 3; (2) Score of infiltration of inflammatory cells: no stroma inflammatory cells, 0; small amount of stroma inflammatory cells, 1; moderate amount of stroma inflammatory cells, 2; high amount of stroma inflammatory cells, 3; stroma diffuse inflammatory cells, 4.

In the case of `C[C@]12CC[C@@H]3c4ccc(O)cc4CC[C@H]3[C@@H]1CC[C@@H]2O` [Estradiol, estradiol], the “Prostate weights, Back part” value came to 1.1 ± 0.9 mg in test [1] (blank control 4.2 ± 1.5) and 5.1 ± 1.6 mg in test [2] (model 7.8 ± 1.8). The “Prostate weights, Abdominal part” value in test [1] (blank control 6.7 ± 1.1) is listed as 1.7 ± 0.5 mg; in test [2] (model 11.3 ± 2.8), 7.0 ± 1.7 mg. In addition, the “Prostate weights, Side part” value in test [1] (blank control 9.6 ± 3.3) came to 1.5 ± 1.3 mg; in test [2] (model 23.6 ± 6.2) it was 15.1 ± 2.7 mg. Also, the Seminal vesicle in test [1] (organ weight, blank control 34.1 ± 11.3) came to 7.3 ± 2.5 mg. In test [1] (organ weight, blank control 42.5 ± 10.6), this molecule displayed an Elevator ani muscle of 14.1 ± 3.3 mg. Besides, in test [1] (organ weight, blank control 151.3 ± 28.2), the Testis was found to be 58.0 ± 12.8 mg.
For the molecule `COc1ccc2c(c1)c(CC(=O)O)c(C)n2C(=O)c1ccc(Cl)cc1` [Indomethacin, indomethacin], the “Swelling rate of ear auricle” value in test [3] was 6.4 ± 2.3 mg; in test [4] it was 14.8 ± 5.1 mg. For the same molecule, the “Prostate weights, Side part” value in test [5] (12 mg/kg ig once, model 73.3 ± 17.3) was determined as 62.0 ± 12.3 mg. In addition, the “Prostate weights, Back part” value in test [5] (12 mg/kg ig once, model 122.1 ± 23.3) came to 128.6 ± 20.9 mg. Further, in test [5] (12 mg/kg ig once, model 466.5 ± 79.1), the “Prostate weights, Abdominal part” value worked out at 358.1 ± 79.2 mg. Moreover, the “Degree of dilation or swelling of stroma blood vessels” value in test [5] (score 0-3, abdominal part of prostate, 10 mg/kg, model 2.6 ± 0.5) is listed as 2.1 ± 2.0. Besides, the “Degree of infiltration of neutrophils” value in test [5] (score 0-4, abdominal part of prostate, 10 mg/kg, model 2.6 ± 1.3) turned out to be 2.2 ± 1.3.
